The values below come from paper PMC9610990, “Inhibitory Activity of Bioactive Phloroglucinols from the Rhizomes of Dryopteris crassirhizoma on Escherichia coli β-Glucuronidase: Kinetic Analysis and Molecular Docking Studies” (Metabolites, 2022).

The target in assay [1] is T1, β-Glucuronidase from E. coli (Escherichia coli, UniProt P05804). The assay is described as follows: β-Glucuronidase inhibitory activity assay with PNPG substrate. Particulars: for Inhibition of Compounds on β-glucuronidase, Inhibition at 100 μM (%): compound at 100 μM; for inhibition at 100 µM: read-out: Inhibition of Compounds on β-glucuronidase, Inhibition at 100 μM (%).
T1 sequence (P05804 whole entry): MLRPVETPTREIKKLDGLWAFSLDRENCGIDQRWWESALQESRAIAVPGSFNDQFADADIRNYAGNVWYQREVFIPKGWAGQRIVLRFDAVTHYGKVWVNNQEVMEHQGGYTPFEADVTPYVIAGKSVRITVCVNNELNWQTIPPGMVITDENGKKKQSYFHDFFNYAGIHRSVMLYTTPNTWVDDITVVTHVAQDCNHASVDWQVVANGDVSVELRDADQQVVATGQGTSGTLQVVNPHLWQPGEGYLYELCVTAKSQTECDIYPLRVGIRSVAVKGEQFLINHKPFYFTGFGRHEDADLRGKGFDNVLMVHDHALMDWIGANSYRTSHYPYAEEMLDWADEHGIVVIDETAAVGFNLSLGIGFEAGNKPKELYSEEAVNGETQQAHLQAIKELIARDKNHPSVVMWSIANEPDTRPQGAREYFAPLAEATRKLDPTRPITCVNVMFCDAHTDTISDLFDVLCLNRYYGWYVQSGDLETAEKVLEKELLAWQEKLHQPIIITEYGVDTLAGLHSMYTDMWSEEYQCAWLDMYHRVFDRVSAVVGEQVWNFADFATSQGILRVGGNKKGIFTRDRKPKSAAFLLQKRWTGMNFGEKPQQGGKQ

For assay [2], the target named is T1, β-Glucuronidase from E. coli. The experiment in a line: Inhibition kinetic analysis with β-glucuronidase (Lineweaver–Burk and Dixon plots). The class given is biochemical. The settings on record: for Ki: determined by Dixon plots; for Inhibition Type: determined by Lineweaver–Burk plots. As to the method:
To identify the inhibition mode of the active compounds on β-glucuronidase, two enzyme kinetic methodologies, the Lineweaver-Burk and Dixon methods, were used. The mode of β-glucuronidase inhibition was determined using a Lineweaver–Burk plot (or double reciprocal plot) at various concentrations of the substrate in the absence or presence of the test compound (concentrations: 0, 10, 20, 40, 60, and 80 µM for 13 and 15; 0, 7.5, 15, 30, 60, and 80 µM for 14; 0, 5, 10, 20, 40, and 60 µM for 26 and 27; and 0, 2.5, 5, 10, 20, and 40 µM for 28). The enzymatic reactions at various concentrations of the test compounds were evaluated by monitoring the effects of different substrate concentrations using Dixon plots (or single reciprocal plots) (0.25, 0.5, 1, and 2.5 mM). Ki values were determined by analyzing the Dixon plot, where the x-axis value was taken as Ki.

For assay [3], the system named is B16F10 murine melanoma cells. Also on record: method as in doi:10.1016/j.phytol.2017.05.022. The settings on record: read-out: inhibition of melanin production IC50; cited from earlier work.
Assay [4] concerns PTP1B enzyme. Also on record: method as in PMID 34416263. The settings on record: in words; cited from earlier work.
Assay [5] concerns neuraminidase of influenza virus H5N1. Particulars: read-out: inhibitory effect on neuraminidase IC50; cited from earlier work.
Where [6] appears, read: PNPG substrate, mean ± SEM of three independent experiments.
Where [7] appears, read: read-out: Inhibition of Compounds on β-glucuronidase, IC50, PNPG substrate, mean ± SEM of three independent experiments.

Like-named read-outs stand apart in the source and are kept apart here.

Take “1-(2,4,6-trihydroxy-3-methylphenyl)propanone [Compound 7]”: the “Inhibition of Compounds on β-glucuronidase, Inhibition at 100 μM (%)” value in assay [1] (setting [6]) was found to be 26.7 ± 1.5%. Further, the IC50 (usually the concentration that inhibits the measured activity by half) in assay [1] (setting [7]) is greater than 100 µM.
Regarding “1-(2, 4, 6-trihydroxy-3-methylphenyl) butanone [Compound 8]”, the “Inhibition of Compounds on β-glucuronidase, Inhibition at 100 μM (%)” value in assay [1] (setting [6]) was 24.9 ± 5.5%. Moreover, the IC50 in assay [1] (setting [7]) is greater than 100 µM.
`CC(=O)c1c(O)cc(O)cc1O` [Compound 1, 2,4,6-trihydroxy-acetophenone]: in assay [1], the IC50 was greater than 100 µM and the inhibition (as a rule, the drop in the measured response relative to a control, in per cent) at 100 µM was determined as 11.6 ± 3.9%.
Consider `CCC(=O)c1c(O)cc(O)cc1O` [Compound 2, 1-(2,4,6-trihydroxy-phenyl)-propan-1-one], for which, in assay [1], the IC50 is greater than 100 µM and the inhibition at 100 µM came out at 24.4 ± 0.2%.
For the molecule `CCCC(=O)c1c(O)cc(O)cc1O` [Compound 3, phlorobutyrophenone], in assay [1], the IC50 is greater than 100 µM and the inhibition at 100 µM is 22 ± 2.1%.
Turning to `CC(=O)c1c(O)cc(O)c(C(C)=O)c1O` [Compound 4, 5-acetyl-2,4,6-trihydroxyacetophenone], in assay [1], the IC50 is greater than 100 µM and the inhibition at 100 µM turned out to be 22.1 ± 2.4%.
Regarding `CCC(=O)c1c(O)cc(O)c(C(=O)CC)c1O` [Compound 5, 1,3-(2,4,6-trihydroxyphenyl)dipropanone], in assay [1], the IC50 is greater than 100 µM and the inhibition at 100 µM is 27.1 ± 0.4%.
For `CCCC(=O)c1c(O)cc(O)c(C(=O)CCC)c1O` [Compound 6, 1,3-(2,4,6-trihydroxyphenyl)dibutanone] the same measures were greater than 100 µM and 33.7 ± 2.3%.
In the case of `CCC(=O)c1c(O)c(C(=O)CC)c(O)c(C(=O)CC)c1O` [Compound 10, tripropionylphloroglucinol], in assay [1], the IC50 was greater than 100 µM and the inhibition at 100 µM turned out to be 41.4 ± 1.7%.
On to `CCCC(=O)c1c(O)c(C(=O)CCC)c(O)c(C(=O)CCC)c1O` [Compound 11, tributyrylphloroglucinol], for which, in assay [1], the IC50 was 43 ± 2.9 µM and the inhibition at 100 µM was 87.3 ± 3.4%.
For `CCCC(=O)c1c(O)cc(O)c(-c2c(O)cc(O)c(C(=O)CCC)c2O)c1O` [Compound 12, bis-phlorobutyrophenone] the same measures were greater than 100 µM and 34.1 ± 0.5%.
Turning to `CCCC(=O)c1c(O)cc(O)c(Cc2c(O)cc(O)c(C(=O)CC)c2O)c1O` [Compound 13, dryopidin PB], in assay [1], the midpoint of inhibition, the IC50, lay at 18.1 ± 1.5 µM and the inhibition at 100 µM came to 93.7 ± 0.3%. In addition, in assay [2], the affinity corresponds to a Ki of 6.3 µM and the “Inhibition Type” value is on record as “Competitive”.
Turning to `CCCC(=O)c1c(O)cc(O)c(Cc2c(O)cc(O)c(C(=O)CCC)c2O)c1O` [Compound 14, methylene-bis-phlorobutyrophenone], in assay [1], half-maximal inhibition (IC50) was put at 14.4 ± 0.6 µM and the inhibition at 100 µM turned out to be 97.1 ± 0.7%. In assay [2], the Ki (as a rule, a dissociation constant, usually derived from enzyme kinetics or from competition with a known ligand) was found to be 4.3 µM and the “Inhibition Type” value is “Competitive”.
For `CCCC(=O)c1c(O)cc(O)c(Cc2c(O)c(C)c(O)c(C(=O)CCC)c2O)c1O` [Compound 15, araspidin BB] the same measures were 17 ± 2.5 µM, 89.1 ± 0.3%, 25.8 µM and “Competitive”.
In the case of `CCC(=O)c1c(O)cc(O)c(CC2=C(O)C(C)(C)C(O)=C(C(C)=O)C2=O)c1O` [Compound 16, norflavaspidic acid AP], in assay [1], 64.4 ± 3.5 µM corresponded to half-maximal inhibition (IC50) and the inhibition at 100 µM turned out to be 68.3 ± 0.2%.
For `CCCC(=O)c1c(O)cc(O)c(CC2=C(O)C(C)(C)C(O)=C(C(C)=O)C2=O)c1O` [Compound 17, norflavaspidic acid AB] the same measures were 67 ± 1.3 µM and 65.1 ± 0.1%.
Consider `CCCC(=O)c1c(O)cc(O)c(CC2=C(O)C(C)(C)C(O)=C(C(=O)CC)C2=O)c1O` [Compound 18, norflavaspidic acid PB], for which, in assay [1], the IC50 was greater than 100 µM and the inhibition at 100 µM stood at 42.2 ± 0.1%. In addition, the half-maximal inhibitory concentration (IC50) in assay [3] is 35.7 µM.
For the molecule `CCCC(=O)C1=C(O)C(C)(C)C(O)=C(Cc2c(O)cc(O)c(C(=O)CCC)c2O)C1=O` [Compound 19, norflavaspidic acid BB], in assay [1], the IC50 is greater than 100 µM and the inhibition at 100 µM is 41 ± 1.4%.
With `CC(=O)C1=C(O)C(C)(C)C(O)=C(Cc2c(O)c(C)c(O)c(C(C)=O)c2O)C1=O` [Compound 20, flavaspidic acid AA], in assay [1], 75.7 ± 1.2 µM corresponded to half-maximal inhibition (IC50) and the inhibition at 100 µM was 76.1 ± 3.4%.
Consider `CCC(=O)c1c(O)c(C)c(O)c(CC2=C(O)C(C)(C)C(O)=C(C(C)=O)C2=O)c1O` [Compound 21, flavaspidic acid AP], for which, in assay [1], the IC50 was greater than 100 µM and the inhibition at 100 µM is 47.9 ± 4.7%.
As for `CCCC(=O)c1c(O)c(C)c(O)c(CC2=C(O)C(C)(C)C(O)=C(C(C)=O)C2=O)c1O` [Compound 22, flavaspidic acid AB], in assay [1], the IC50 is greater than 100 µM and the inhibition at 100 µM came to 48.7 ± 4.8%.
For `CCCC(=O)c1c(O)c(C)c(O)c(CC2=C(O)C(C)(C)C(O)=C(C(=O)CC)C2=O)c1O` [Compound 23, flavaspidic acid PB], in assay [1], the IC50 amounted to 76.5 ± 1.5 µM and the inhibition at 100 µM stood at 73.5 ± 0.7%. Besides, the IC50 in assay [3] was 38.9 µM.
Turning to `CCCC(=O)c1c(O)c(CC2=C(O)C(C)(C)C(O)=C(C(C)=O)C2=O)c(O)c(C2CCCN2C(=N)N)c1O` (centres unmarked) [Compound 25, dryopcrassirine AB], in assay [1], the IC50 was greater than 100 µM and the inhibition at 100 µM was found to be 30.7 ± 1.7%.
As for `CCCC(=O)c1c(O)cc(O)c(Cc2c(O)c(CC3=C(O)C(C)(C)C(O)=C(C(C)=O)C3=O)c(O)c(C(=O)CCC)c2O)c1O` [Compound 26, nortrisflavaspidic acid ABB], in assay [1], inhibition was half-maximal at 8 ± 1.8 µM (IC50) and the inhibition at 100 µM is 98.1 ± 2.5%. Moreover, in assay [2], the Ki turned out to be 7.5 µM and the “Inhibition Type” value was “Competitive”. Moreover, the “activity toward the PTP1B enzyme” value in assay [4] was “significant activity”. In addition, in assay [5], the IC50 is 51.5 µM.
For `CCCC(=O)c1c(O)c(C)c(O)c(Cc2c(O)c(CC3=C(O)C(C)(C)C(O)=C(C(C)=O)C3=O)c(O)c(C(=O)CCC)c2O)c1O` [Compound 27, trisflavaspidic acid ABB], in assay [1], half-maximal inhibition (IC50) was put at 7.1 ± 2.6 µM and the inhibition at 100 µM worked out at 101.2 ± 0.6%. Also, in assay [2], the Ki turned out to be 0.5 µM and the “Inhibition Type” value is “Competitive”. Moreover, in assay [4], the “activity toward the PTP1B enzyme” value is “significant activity”.
On to `CCCC(=O)C1=C(O)C(C)(C)C(O)=C(Cc2c(O)c(Cc3c(O)c(C)c(O)c(C(=O)CCC)c3O)c(O)c(C(=O)CCC)c2O)C1=O` [Compound 28, trisflavaspidic acid BBB], for which, in assay [1], inhibition was half-maximal at 5.6 ± 1.1 µM (IC50) and the inhibition at 100 µM was 106 ± 3.4%. In assay [2], the Ki worked out at 2.8 µM and the “Inhibition Type” value is “Competitive”. In addition, in assay [4], the “activity toward the PTP1B enzyme” value was “significant activity”.
As for `CCCC(=O)c1c(O)c(CC2=C(O)C(C)(C)C(O)=C(C(C)=O)C2=O)c(O)c(CC2=C(O)C(C)(C)C(O)=C(C(C)=O)C2=O)c1O` [Compound 29, filixic acid ABA], the IC50 was 90.5 ± 2.7 µM in assay [1] and 29.6 µM in assay [5]. For the same molecule, the inhibition at 100 µM in assay [1] was found to be 53.4 ± 2.3%.
For `CCCC(=O)c1c(O)c(CC2=C(O)C(C)(C)C(O)=C(C(C)=O)C2=O)c(O)c(Cc2c(O)c(CC3=C(O)C(C)(C)C(O)=C(C(C)=O)C3=O)c(O)c(C(=O)CCC)c2O)c1O` [Compound 30, dryocrassin ABBA], in assay [1], half-maximal inhibition (IC50) required 94.9 ± 2.5 µM and the inhibition at 100 µM worked out at 51.8 ± 2.7%.
As to `O=C(O)[C@@H](O)[C@H]1OC(=O)[C@H](O)[C@H]1O` [DSA, D-saccharic acid 1,4-lactone, reference compound], in assay [1], the IC50 turned out to be 23.4 ± 1.5 µM and the inhibition at 100 µM amounted to 79 ± 0.3%.
